Assay results: ChEMBL document CHEMBL1201861, “Genomics of Drug Sensitity in Cancer screening data, Wellcome Trust Sanger Institute”

Experiments:
Assay in all cases: cells
[1] = system: 8-MG-BA; type: functional, cell-based, Homo sapiens; details: Homo sapiens, 8-MG-BA;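 further: growth inhibition of 8-MG-BA cells, read out with a cell viability assay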
Description: SANGER: Inhibition of human 8-MG-BA cell growth in a cell viability assay.

[2] = system: KURAMOCHI; type: functional, cell-based; details: Homo sapiens;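 further: growth inhibition of KURAMOCHI cells, read out with a cell viability assay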
Description: SANGER: Inhibition of human KURAMOCHI cell growth in a cell viability assay.

[3] = system: SW1417; type: functional, cell-based, Homo sapiens; details: Homo sapiens, SW1417;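 further: growth inhibition of human SW1417 cells, read out with a cell viability assay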
Description: SANGER: Inhibition of human SW1417 cell growth in a cell viability assay.

[4] = system: OVCAR-4; type: functional, cell-based, Homo sapiens; details: Homo sapiens, OVCAR-4;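 further: growth inhibition of human OVCAR-4 cells, measured with a cell viability assay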
Description: SANGER: Inhibition of human OVCAR-4 cell growth in a cell viability assay.

[5] = system: NCI-H446; type: functional, cell-based; details: Homo sapiens;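 further: growth inhibition of NCI-H446 cells determined by a cell viability assay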
Description: SANGER: Inhibition of human NCI-H446 cell growth in a cell viability assay.

[6] = system: VM-CUB-1; type: functional, cell-based; details: Homo sapiens;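 further: cell viability assay measuring growth inhibition of the human VM-CUB-1 cell line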
Description: SANGER: Inhibition of human VM-CUB-1 cell growth in a cell viability assay.

[7] = system: DOHH-2; type: functional, cell-based; details: Homo sapiens;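 further: growth inhibition of human DOHH-2 cells, read out with a cell viability assay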
Description: SANGER: Inhibition of human DOHH-2 cell growth in a cell viability assay.

[8] = system: 8505C; type: functional, cell-based, Homo sapiens; details: Homo sapiens, 8505C
Description: SANGER: Inhibition of human 8505C cell growth in a cell viability assay.

[9] = system: ES6; type: functional, cell-based, Homo sapiens; details: Homo sapiens, ES6;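 further: growth inhibition of human ES6 cells, read out with a cell viability assay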
Description: SANGER: Inhibition of human ES6 cell growth in a cell viability assay.

[10] = system: PFSK-1; type: functional, cell-based, Homo sapiens; details: Homo sapiens, PFSK-1;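 further: cell viability assay measuring how strongly compounds suppress growth of human PFSK-1 cells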
Description: SANGER: Inhibition of human PFSK-1 cell growth in a cell viability assay.

[11] = system: SNU-5; type: functional, cell-based; details: Homo sapiens;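 further: cell viability readout used to measure growth inhibition in human NCI-SNU-5 cells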
Description: SANGER: Inhibition of human NCI-SNU-5 cell growth in a cell viability assay.

[12] = system: ACHN; type: functional, cell-based, Homo sapiens; details: Homo sapiens, ACHN;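 further: cell viability read-out used to gauge how strongly growth of human ACHN cells is suppressed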
Description: SANGER: Inhibition of human ACHN cell growth in a cell viability assay.

[13] = system: KYSE-410; type: functional, cell-based, Homo sapiens; details: Homo sapiens, KYSE-410;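 further: growth inhibition of KYSE-410 cells, measured through a cell viability readout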
Description: SANGER: Inhibition of human KYSE-410 cell growth in a cell viability assay.

[14] = system: HT; type: functional, cell-based; details: Homo sapiens
Description: SANGER: Inhibition of human HT cell growth in a cell viability assay.

[15] = system: A101D; type: functional, cell-based, Homo sapiens; details: Homo sapiens, A101D;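 further: growth inhibition of the cell line, measured with a viability assay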
Description: SANGER: Inhibition of human A101D cell growth in a cell viability assay.

[16] = system: MFM-223; type: functional, cell-based, Homo sapiens; details: Homo sapiens, MFM-223
Description: SANGER: Inhibition of human MFM-223 cell growth in a cell viability assay.

[17] = system: SK-LU-1; type: functional, cell-based, Homo sapiens; details: Homo sapiens, SK-LU-1;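 further: cell viability assay measuring growth inhibition of human SK-LU-1 cells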
Description: SANGER: Inhibition of human SK-LU-1 cell growth in a cell viability assay.

[18] = system: JVM-2; type: functional, cell-based; details: Homo sapiens;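 further: growth inhibition of JVM-2 cells determined by a cell viability assay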
Description: SANGER: Inhibition of human JVM-2 cell growth in a cell viability assay.

[19] = system: SK-MEL-30; type: functional, cell-based; details: Homo sapiens;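 further: growth inhibition of SK-MEL-30 cells, determined with a cell viability assay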
Description: SANGER: Inhibition of human SK-MEL-30 cell growth in a cell viability assay.

[20] = system: KYSE-150 cell line; type: functional, cell-based, Homo sapiens; details: Homo sapiens, KYSE-150;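 further: growth inhibition of human KYSE-150 cells, read out with a cell viability assay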
Description: SANGER: Inhibition of human KYSE-150 cell growth in a cell viability assay.

[21] = system: SW626; type: functional, cell-based, Homo sapiens; details: Homo sapiens, SW626;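 further: growth inhibition of SW626 cells, measured with a cell viability assay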
Description: SANGER: Inhibition of human SW626 cell growth in a cell viability assay.

[22] = system: NCI-H1650; type: functional, cell-based, Homo sapiens; details: Homo sapiens, NCI-H1650;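 further: growth inhibition of human NCI-H1650 cells measured by a cell viability assay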
Description: SANGER: Inhibition of human NCI-H1650 cell growth in a cell viability assay.

[23] = system: U2OS; type: functional, cell-based, Homo sapiens, U-2-OS; details: Homo sapiens, U2OS;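 further: growth inhibition of human U-2-OS cells, determined with a cell viability assay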
Description: SANGER: Inhibition of human U-2-OS cell growth in a cell viability assay.

[24] = system: LS-411N; type: functional, cell-based, Homo sapiens; details: Homo sapiens, LS-411N
[25] = system: SBC-1; type: functional, cell-based; details: Homo sapiens;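 further: cell viability assay measuring growth inhibition of the SBC-1 cell line, IC50 being the concentration that halves growth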
Description: SANGER: Inhibition of human SBC-1 cell growth in a cell viability assay.

[26] = system: IA-LM; type: functional, cell-based, Homo sapiens; details: Homo sapiens, IA-LM;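 further: cell viability assay measuring growth inhibition of human IA-LM cells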
Description: SANGER: Inhibition of human IA-LM cell growth in a cell viability assay.

[27] = system: JEG-3; type: functional, cell-based, Homo sapiens; details: Homo sapiens, JEG-3;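 further: growth inhibition of human JEG-3 cells, read out with a cell viability assay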
Description: SANGER: Inhibition of human JEG-3 cell growth in a cell viability assay.

[28] = system: NCI-H1623; type: functional, cell-based, Homo sapiens; details: Homo sapiens, NCI-H1623;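 further: cell viability assay used as the read-out for growth inhibition of NCI-H1623 cells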
Description: SANGER: Inhibition of human NCI-H1623 cell growth in a cell viability assay.

[29] = system: HEL; type: functional, cell-based, Homo sapiens; details: Homo sapiens, HEL;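 further: growth inhibition of HEL cells, read out with a cell viability assay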
Description: SANGER: Inhibition of human HEL cell growth in a cell viability assay.

[30] = system: LCLC-97TM1; type: functional, cell-based, Homo sapiens; details: Homo sapiens, LCLC-97TM1;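 further: cell viability assay measuring growth inhibition of human LCLC-97TM1 cells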
Description: SANGER: Inhibition of human LCLC-97TM1 cell growth in a cell viability assay.

[31] = system: BT-20; type: functional, cell-based, Homo sapiens; details: Homo sapiens, BT-20;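 further: cell viability assay measuring suppression of growth in human BT-20 cells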
Description: SANGER: Inhibition of human BT-20 cell growth in a cell viability assay.

[32] = system: NCI-H441; type: functional, cell-based; details: Homo sapiens;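 further: growth inhibition of NCI-H441 cells, read out with a cell viability assay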
Description: SANGER: Inhibition of human NCI-H441 cell growth in a cell viability assay.

[33] = system: DB; type: functional, cell-based; details: Homo sapiens
Description: SANGER: Inhibition of human DB cell growth in a cell viability assay.

[34] = system: SAOS-2; type: functional, cell-based, Homo sapiens; details: Homo sapiens, SAOS-2;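 further: growth inhibition of human Saos-2 cells determined by a cell viability assay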
Description: SANGER: Inhibition of human Saos-2 cell growth in a cell viability assay.

[35] = system: ES4; type: functional, cell-based, Homo sapiens; details: Homo sapiens, ES4;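 further: growth inhibition of human ES4 cells, read out by a cell viability assay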
Description: SANGER: Inhibition of human ES4 cell growth in a cell viability assay.

[36] = system: MN-60; type: functional, cell-based; details: Homo sapiens;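 further: growth inhibition of the MN-60 cell line, determined with a cell viability assay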
Description: SANGER: Inhibition of human MN-60 cell growth in a cell viability assay.

[37] = system: SW837; type: functional, cell-based, Homo sapiens; details: Homo sapiens, SW837;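 further: growth inhibition of SW837 cells, determined with a cell viability assay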
Description: SANGER: Inhibition of human SW837 cell growth in a cell viability assay.

[38] = system: NCI-H720; type: functional, cell-based; details: Homo sapiens;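 further: growth inhibition of human NCI-H720 cells determined by a cell viability assay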
Description: SANGER: Inhibition of human NCI-H720 cell growth in a cell viability assay.

[39] = system: LB2518-MEL; type: functional, cell-based, Homo sapiens; details: Homo sapiens, LB2518-MEL;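 further: growth inhibition of human LB2518-MEL cells, measured with a cell viability assay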
Description: SANGER: Inhibition of human LB2518-MEL cell growth in a cell viability assay.

[40] = system: NCI-H1648; type: functional, cell-based, Homo sapiens; details: Homo sapiens, NCI-H1648;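 further: cell viability assay measuring inhibition of NCI-H1648 cell growth, from the Sanger screening data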
Description: SANGER: Inhibition of human NCI-H1648 cell growth in a cell viability assay.

[41] = system: HSC-2; type: functional, cell-based, Homo sapiens; details: Homo sapiens, HSC-2;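 further: growth inhibition of human HSC-2 cells, read out by a cell viability assay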
Description: SANGER: Inhibition of human HSC-2 cell growth in a cell viability assay.

[42] = system: GI-1; type: functional, cell-based, Homo sapiens; details: Homo sapiens, GI-1;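 further: growth inhibition of human GI-1 cells, measured with a cell viability readout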
Description: SANGER: Inhibition of human GI-1 cell growth in a cell viability assay.

[43] = system: SNU-387; type: functional, cell-based, Homo sapiens; details: Homo sapiens, SNU-387
Description: SANGER: Inhibition of human SNU-387 cell growth in a cell viability assay.

[44] = system: CTV-1; type: functional, cell-based; details: Homo sapiens;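 further: growth inhibition of the cell line, read out with a cell viability assay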
Description: SANGER: Inhibition of human CTV-1 cell growth in a cell viability assay.

[45] = system: HT-144; type: functional, cell-based, Homo sapiens; details: Homo sapiens, HT-144
Description: SANGER: Inhibition of human HT-144 cell growth in a cell viability assay.

[46] = system: MFE-280; type: functional, cell-based, Homo sapiens; details: Homo sapiens, MFE-280;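 further: growth inhibition of MFE-280 cells, determined with a cell viability readout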
Description: SANGER: Inhibition of human MFE-280 cell growth in a cell viability assay.

[47] = system: EFM-19; type: functional, cell-based, Homo sapiens; details: Homo sapiens, EFM-19;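 further: growth inhibition of human EFM-19 cells, measured in a cell viability assay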
Description: SANGER: Inhibition of human EFM-19 cell growth in a cell viability assay.

[48] = system: KARPAS-45; type: functional, cell-based; details: Homo sapiens;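 further: inhibition of cell line growth, read out through a viability assay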
Description: SANGER: Inhibition of human KARPAS-45 cell growth in a cell viability assay.

[49] = system: HOP-92; type: functional, cell-based, Homo sapiens; details: Homo sapiens, HOP-92;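 further: cell viability readout, with IC50 reflecting inhibition of HOP-92 cell growth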
Description: SANGER: Inhibition of human HOP-92 cell growth in a cell viability assay.

[50] = system: HCC1569; type: functional, cell-based, Homo sapiens; details: Homo sapiens, HCC1569;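 further: growth inhibition of human HCC1569 cells, read out with a cell viability assay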
Description: SANGER: Inhibition of human HCC1569 cell growth in a cell viability assay.

[51] = system: NMC-G1; type: functional, cell-based, Homo sapiens; details: Homo sapiens, NMC-G1;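 further: growth inhibition of the NMC-G1 cell line, measured with a cell viability read-out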
Description: SANGER: Inhibition of human NMC-G1 cell growth in a cell viability assay.

[52] = system: MZ1-PC; type: functional, cell-based, Homo sapiens; details: Homo sapiens, MZ1-PC;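 further: cell viability assay measuring growth inhibition of human MZ1-PC cells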
Description: SANGER: Inhibition of human MZ1-PC cell growth in a cell viability assay.

[53] = system: NCI-H2342; type: functional, cell-based; details: Homo sapiens;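 further: growth inhibition of the cancer cell line, determined with a cell viability assay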
Description: SANGER: Inhibition of human NCI-H2342 cell growth in a cell viability assay.

SMILES: C=CCc1cccc(/C=N/NC(=O)CN2CCN(Cc3ccccc3)CC2)c1O [PAC-1]
- IC50 [1]: > 2.56 µM
- IC50 [2]: > 2.56 µM
- IC50 [3]: > 2.56 µM
- IC50 [4]: > 2.56 µM
- IC50 [5]: > 2.56 µM
- IC50 [6]: > 2.56 µM
- IC50 [7]: > 2.56 µM
- IC50 [8]: > 2.56 µM
- IC50 [9]: 1.49 µM
- IC50 [10]: > 2.56 µM
- IC50 [11]: > 2.56 µM
- IC50 [12]: 1.69 µM
- IC50 [13]: 1.18 µM
- IC50 [14]: > 2.56 µM
- IC50 [15]: > 2.56 µM
- IC50 [16]: > 2.56 µM
- IC50 [17]: > 2.56 µM
- IC50 [18]: > 2.56 µM
- IC50 [19]: > 2.56 µM
- IC50 [20]: > 2.56 µM
- IC50 [21]: > 2.56 µM
- IC50 [22]: > 2.56 µM
- IC50 [23]: > 2.56 µM
- IC50 [24]: 2.08 µM
- IC50 [25]: > 2.56 µM
- IC50 [26]: > 2.56 µM
- IC50 [27]: > 2.56 µM
- IC50 [28]: > 2.56 µM
- IC50 [29]: > 2.56 µM
- IC50 [30]: 1.42 µM
- IC50 [31]: > 2.56 µM
- IC50 [32]: > 2.56 µM
- IC50 [33]: > 2.56 µM
- IC50 [34]: > 2.56 µM
- IC50 [35]: > 2.56 µM
- IC50 [36]: > 2.56 µM
- IC50 [37]: > 2.56 µM
- IC50 [38]: > 2.56 µM
- IC50 [39]: > 2.56 µM
- IC50 [40]: > 2.56 µM
- IC50 [41]: > 2.56 µM
- IC50 [42]: > 2.56 µM
- IC50 [43]: > 2.56 µM
- IC50 [44]: 1.96 µM
- IC50 [45]: 2.5 µM
- IC50 [46]: > 2.56 µM
- IC50 [47]: 1.95 µM
- IC50 [48]: > 2.56 µM
- IC50 [49]: > 2.56 µM
- IC50 [50]: > 2.56 µM
- IC50 [51]: > 2.56 µM
- IC50 [52]: > 2.56 µM
- IC50 [53]: > 2.56 µM
